Measured values reported in patent US20230399319A1, “Acylsulfamide Compound and Pharmaceutical Use Therefor” (Japan Tobacco Inc., priority 2019, published 2023).
Where two headings read alike, the source gives them in different places.

Target: NLRP3 inflammasome (Homo sapiens (Human), UniProt Q96P20)
Test: Evaluation of NLRP3 inflammasome inhibitory activity (inhibition of IL-1β production in THP1-Null cells, LPS/Nigericin)
[1] = inhibition of IL-1β production in THP1-Null cells
[2] = IL-1β production in THP1-Null cells, PMA/LPS primed, Nigericin 7.5 μmol/L

Sequence of NLRP3 inflammasome (Q96P20 whole entry): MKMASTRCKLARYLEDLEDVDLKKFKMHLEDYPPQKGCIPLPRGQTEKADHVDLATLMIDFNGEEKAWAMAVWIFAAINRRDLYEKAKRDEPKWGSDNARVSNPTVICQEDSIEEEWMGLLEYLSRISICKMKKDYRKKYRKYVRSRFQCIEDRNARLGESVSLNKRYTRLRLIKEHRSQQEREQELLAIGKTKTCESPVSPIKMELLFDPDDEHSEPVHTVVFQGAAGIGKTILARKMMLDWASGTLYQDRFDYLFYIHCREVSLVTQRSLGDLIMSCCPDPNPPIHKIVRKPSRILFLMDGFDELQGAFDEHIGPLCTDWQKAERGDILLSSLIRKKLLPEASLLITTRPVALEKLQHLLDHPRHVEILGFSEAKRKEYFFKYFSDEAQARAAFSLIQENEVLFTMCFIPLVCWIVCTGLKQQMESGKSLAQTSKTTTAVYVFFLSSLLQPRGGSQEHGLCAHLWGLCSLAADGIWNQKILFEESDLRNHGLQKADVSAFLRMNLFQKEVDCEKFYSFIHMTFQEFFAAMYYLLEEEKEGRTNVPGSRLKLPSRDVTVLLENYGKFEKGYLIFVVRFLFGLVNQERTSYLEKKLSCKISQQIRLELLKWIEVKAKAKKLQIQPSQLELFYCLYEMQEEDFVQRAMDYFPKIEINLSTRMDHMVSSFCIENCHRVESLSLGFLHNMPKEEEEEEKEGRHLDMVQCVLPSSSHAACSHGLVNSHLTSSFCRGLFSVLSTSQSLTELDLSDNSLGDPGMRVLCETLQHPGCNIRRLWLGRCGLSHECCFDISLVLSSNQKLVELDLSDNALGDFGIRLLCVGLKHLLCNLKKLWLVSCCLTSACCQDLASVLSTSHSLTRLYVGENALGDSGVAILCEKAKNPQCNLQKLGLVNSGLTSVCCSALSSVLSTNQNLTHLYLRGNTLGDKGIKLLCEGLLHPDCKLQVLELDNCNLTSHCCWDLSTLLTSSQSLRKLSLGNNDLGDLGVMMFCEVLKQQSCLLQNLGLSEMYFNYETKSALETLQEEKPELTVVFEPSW

| SMILES | IC50 [1] | also measured |
| --- | --- | --- |
| CCCS(=O)(=O)N1CCCN(S(=O)(=O)NC(=O)c2coc(Nc3cc(C)ccc3CC)n2)CC1 [Example 2-257] | 22 nM |  |
| COC1CCCN(S(=O)(=O)NC(=O)c2coc(Nc3cc(C(F)(F)F)ccc3C)n2)C1 (racemic) [Example 2-159] |  | IC50: 61 nM |
| Cc1ccc(C(F)(F)F)cc1Nc1nc(C(=O)NS(=O)(=O)N(C)C)cs1 [Example 2-062] | 48 nM |  |
| CCOCC1CCN(S(=O)(=O)NC(=O)c2coc(Nc3cc(C(C)C)ccc3C)n2)CCO1 (stereo not shown) [Example 2-325] | 25 nM |  |
| Cc1ccc2c(c1Nc1nc(C(=O)NS(=O)(=O)N3CCC(O)C3)co1)CCC2 (racemic) [Example 30] |  | IC50: 190 nM |
| Cc1cc(Nc2nc(C(=O)NS(=O)(=O)N3CCOC(COC(C)C)CC3)co2)c(C)cc1F (stereo not shown) [Example 3-003] |  | IC50 [2]: 21 nM |
| CCS(=O)(=O)N1CCCN(S(=O)(=O)NC(=O)c2coc(Nc3cc(C(F)(F)F)ccc3C)n2)C(C)C1 (racemic) [Example 2-241] |  | IC50: 37 nM |
| Cc1ccc(C(F)(F)F)cc1Nc1nc(C(=O)NS(=O)(=O)N2CCc3nncn3CC2)co1 [Example 2-217] | < 3000 nM |  |
| CCCC(=O)N1CCCN(S(=O)(=O)NC(=O)c2coc(Nc3cc(C(F)(F)F)ccc3C)n2)CC1 [Example 2-215] | 61 nM |  |
| COCCOC[C@@H]1CCN(S(=O)(=O)NC(=O)c2coc(Nc3cc(C)c(F)cc3C)n2)CCO1 [Example 3-005, (S)-2-((4-fluoro-2,5-dimethylphenyl)amino)-N-((7-((2-methoxyethoxy)methyl)-1,4-oxazepan-4-yl)sulfonyl)oxazole-4-carboxamide] |  | IC50 [2]: 40 nM |
| CCS(=O)(=O)N1CCCN(S(=O)(=O)NC(=O)c2coc(Nc3cc(C(F)(F)F)ccc3C)n2)CC1C (racemic) [Example 2-242] |  | IC50: 45 nM |
| COC(=O)C1COCCN1S(=O)(=O)NC(=O)c1coc(Nc2c3c(c(Cl)c4c2CCC4)CCC3)n1 (racemic) [Example 72] |  | IC50: 310 nM |
| CCOCC1CCN(S(=O)(=O)NC(=O)c2coc(Nc3cc(C(F)(F)F)ccc3C)n2)CCO1 (stereo not shown) [Example 2-301] | 11 nM |  |
| COC1COCCN(S(=O)(=O)NC(=O)c2coc(Nc3cc(C(C)(F)F)ccc3C)n2)C1 (racemic) [Example 2-185] |  | IC50: 38 nM |
| CS(=O)(=O)C1CCN(S(=O)(=O)NC(=O)c2coc(Nc3c4c(c(Cl)c5c3CCC5)CCC4)n2)CC1 [Example 43] |  | IC50 [2]: < 30 nM |
| CC(C)n1nc2c(c1Nc1nc(C(=O)NS(=O)(=O)N(C)C)co1)CCC2 [Example 2-014] | 6000 nM |  |
| CC(=O)NC1CCN(S(=O)(=O)NC(=O)c2coc(Nc3c4c(c(F)c5c3CCC5)CCC4)n2)CC1 [Example 62] |  | IC50 [2]: 270 nM |
| CC(C)c1ccc(C(F)F)cc1Nc1nc(C(=O)NS(=O)(=O)N2CCCOCC2)co1 [Example 2-106] | 44 nM |  |
| Cc1ccc(C(F)F)cc1Nc1nc(C(=O)NS(=O)(=O)N2CCOC(COC(F)F)CC2)co1 (stereo not shown) [Example 2-328] | 30 nM |  |
| CC(C)c1cn(C(C)C)nc1Nc1nc(C(=O)NS(=O)(=O)N(C)C)co1 [Example 2-117] | 110 nM |  |
| CCN(C)C(=O)C1CCCN(S(=O)(=O)NC(=O)c2coc(Nc3cc(C(F)(F)F)ccc3C)n2)CC1 (racemic) [Example 2-246] |  | IC50: 67 nM |
| COCC1CCN(S(=O)(=O)NC(=O)c2coc(Nc3cc(C)ccc3C)n2)CCO1 (stereo not shown) [Example 2-299] | 190 nM |  |
| O=C1CCN(S(=O)(=O)NC(=O)c2coc(Nc3c4c(c(Cl)c5c3CCC5)CCC4)n2)C1 [Example 65] |  | IC50 [2]: 63 nM |
| CC(C)c1nn(C(C)C)cc1Nc1nc(C(=O)NS(=O)(=O)N2CCCN(S(=O)(=O)CC(C)(C)C)CC2)co1 [Example 2-170] | 600 nM |  |
| CC(C)n1cc(Nc2nc(C(=O)NS(=O)(=O)N3CCCOCC3)co2)c(C(C)(C)C)n1 [Example 2-194] | 1500 nM |  |
| CC(C)c1nn(C(C)C)cc1Nc1nc(C(=O)NS(=O)(=O)N(C)C)co1 [Example 2-089] | 1200 nM |  |

| SMILES | IC50 [1] | also measured |
| --- | --- | --- |
| O=C(NS(=O)(=O)N1CCCC1)c1coc(Nc2c3c(cc4c2CCC4)CCC3)n1 [Example 22] |  | IC50 [2]: < 30 nM |
| CCCS(=O)(=O)N1CCCN(S(=O)(=O)NC(=O)c2coc(Nc3cc(Br)ccc3C)n2)CC1 [Example 2-292] | 34 nM |  |
| Cc1ccc(C(F)(F)F)cc1Nc1nc(C(=O)NS(=O)(=O)N2CCOC(C)CC2)co1 (racemic) [Example 2-262] |  | IC50: 18 nM |
| CCCS(=O)(=O)N1CCCN(S(=O)(=O)NC(=O)c2coc(Nc3cccc4ocnc34)n2)CC1 [Example 2-271] | 940 nM |  |
| CCOCC1CCN(S(=O)(=O)NC(=O)c2coc(Nc3nn(C(C)C)cc3C(C)C)n2)CCO1 (stereo not shown) [Example 2-344] | 65 nM |  |
| Cc1ccnc(N2CCCN(S(=O)(=O)NC(=O)c3coc(Nc4cc(C(F)(F)F)ccc4C)n3)CC2)n1 [Example 2-211] | 16 nM |  |
| CCCS(=O)(=O)N1CCCN(S(=O)(=O)NC(=O)c2coc(Nc3cc(C)c(C)cc3C)n2)CC1 [Example 2-289] | 46 nM |  |
| CCS(=O)(=O)N1CCCN(S(=O)(=O)NC(=O)c2coc(Nc3cc(C(F)(F)F)ccc3C)n2)CC1 [Example 2-064] | 26 nM |  |
| Cc1cc(F)c(C(F)(F)F)cc1Nc1nc(C(=O)NS(=O)(=O)N2CCCOCC2)co1 [Example 2-213] | 39 nM |  |
| O=C(NS(=O)(=O)N1CCOCC12CCC2)c1cnc(Nc2c3c(cc4c2CCC4)CCC3)o1 [Example 9] |  | IC50 [2]: 210 nM |
| COC(C)c1ccc(C)c(Nc2nc(C(=O)NS(=O)(=O)N(C)C)co2)c1 (racemic) [Example 2-061] |  | IC50: 570 nM |
| CN(C)S(=O)(=O)NC(=O)c1coc(Nc2c3c(cc4c2CCC4)CCC3)n1 [Example 13] |  | IC50 [2]: 48 nM |
| CCCCS(=O)(=O)N1CCCN(S(=O)(=O)NC(=O)c2coc(Nc3cc(C(F)F)ccc3C(C)C)n2)CC1 [Example 2-225] | 36 nM |  |
| Cc1ccc(C(F)(F)F)nc1Nc1nc(C(=O)NS(=O)(=O)N(C)C)co1 [Example 2-087] | 550 nM |  |
| Cc1cn(C(C)C)nc1Nc1nc(C(=O)NS(=O)(=O)N2CCCOCC2)co1 [Example 2-147] | 420 nM |  |
| CC(C)c1ccc(C(F)F)cc1Nc1nc(C(=O)NS(=O)(=O)N(C)C)co1 [Example 2-105] | 86 nM |  |
| CCC1CN(S(=O)(=O)NC(=O)c2coc(Nc3cc(C(F)(F)F)ccc3C)n2)CCO1 (racemic) [Example 2-006] |  | IC50: 31 nM |
| Cc1ccc(C(C)(F)F)cc1Nc1nc(C(=O)NS(=O)(=O)N(C)C)co1 [Example 2-013] | 64 nM |  |
| CN(C)S(=O)(=O)NC(=O)c1cnc(Nc2cccc3c2CCC3)o1 [Example 19] |  | IC50 [2]: 5700 nM |
| O=C(NS(=O)(=O)N1CCS(=O)(=O)CC1)c1coc(Nc2c3c(c(Cl)c4c2CCC4)CCC3)n1 [Example 42] |  | IC50 [2]: 970 nM |
| CN(C)C(=O)C1CCN(S(=O)(=O)NC(=O)c2coc(Nc3c4c(c(F)c5c3CCC5)CCC4)n2)CC1 [Example 63] |  | IC50 [2]: 900 nM |
| COC1CN(S(=O)(=O)NC(=O)c2coc(Nc3cc(C(F)(F)F)ccc3C)n2)C1 [Example 2-057] | 570 nM |  |
| CCCCS(=O)(=O)N1CCCN(S(=O)(=O)NC(=O)c2coc(Nc3nn(C(C)C)cc3C)n2)CC1 [Example 2-181] | 31 nM |  |
| CCCS(=O)(=O)N1CCN(S(=O)(=O)NC(=O)c2coc(Nc3cc(C(F)(F)F)ccc3C)n2)CC(F)C1 (racemic) [Example 2-222] |  | IC50: 30 nM |
| Cc1ccc2c(c1Nc1nc(C(=O)NS(=O)(=O)N3CCOCC3)co1)CCC2 [Example 32] |  | IC50 [2]: 150 nM |
| CC(C)c1cccc(C(C)C)c1Nc1ncc(C(=O)NS(=O)(=O)N(C)C)o1 [Example 20] |  | inhibition at 30 µM (read-out: Inhibition at 30 μM): 48% |
